Measured values: patent publication US10752900B2, “Oligonucleotides for modulating gene expression and uses thereof” (BIOGENERA S.P.A., priority 2012, dated 2020)

Columns and labels:
WERI-Rb1 = test: Cellular proliferation assay (ATP-Lite), WERI-Rb1 cells; format: cell-based; conditions: Table 6
Protocol: (§1) For the purpose of assessing the gene modulation ability of the oligonucleotides of the present invention, the effect of their administration on cell viability was determined. For this purpose 5×10^3 cells per well were seeded into 96-well cell culture plates (experiments conducted in triplicate) with 100 μl of OPTI-MEM (GIBCO BRL) medium containing 4% FBS and 2 mM of L-glutammine. The PNA oligonucleotides were administered at different concentrations (1 μM-2.5 μM-5 μM-10 μM) in order to observe a dose-effect relationship. The viability of the treated cells was determined at 48, 72, 96 and 168 hours after treatment. Cell viability was assessed by means of an ATP-Lite assay (Luminescence ATP Detection Assay System, PerkinElmer) and is reported as the ratio between the average signal of the treated wells compared to the average value of the wells of untreated control cells. The cells were processed following the instructions provided with the kit. The assays were performed on the same cell lines used to determine the levels of the MYCN gene messenger and listed in the paragraph: Treatments with Oligonucleotides-QT-PCR. The PNAs having SEQ ID NO: 1-12 were also tested on different cell lines which overexpress MYCN (Kelly, SKNBE2c, RH30, […] 1 and H69). The results are shown in Table 6 and confirm the selectivity and specificity of the inhibition effect of the PNAs on the product of protein translation of the MYCN gene.

WiT49 = test: Cellular proliferation assay (ATP-Lite), WiT49 cells; format: cell-based, human; conditions: Table 6
Protocol: as §1

MYCN gene = test: QT-PCR, MYCN mRNA in RH30 cells; format: cell-based, human; conditions: Table 6, PNA
Protocol: For the purpose of assessing the ability of the oligonucleotides of the present invention to modulate the expression of the target genes, their ability to reduce the quantity of messenger RNA was analyzed using the Real-Time PCR technique. For this purpose, use was made of 24-well plates, which were seeded with 5.0×10^4 cells with 0.3 ml of OPTI-MEM (GIBCO BRL) medium, 4% FBS and 2 mM L-glutammine (experiments in triplicate) per well. The cells were incubated for 24 hours at 37° C., in an atmosphere containing 5% CO2 to permit adherence to the base of the wells. Each oligonucleotide analyzed, except for the PNA oligonucleotides, was incubated beforehand with 2 μl of Lipofectamine 2000 (Invitrogen), with 0.3 mL of serum-free OPTI-MEM (GIBCO BRL) medium. For each well, the oligonucleotides were analyzed at the following final concentrations: • the antisense oligonucleotides siRNA and siRNA gapmer (i.e. the oligonucleotides containing one or more monomers of chemically modified nucleic acids at the 3' or 5' end, while in the central portion they have monomers of nucleic acids that have not been modified or have been modified at the level of the phosphodiester bond as a phosphorothioate bond) were used at 200 nM; • the antisense oligonucleotides containing phosphorothioate DNA monomers, the RNA antigene oligonucleotides (agRNA) and the oligonucleotides containing DNA monomers and LNA monomers were used at 10 μM; • the morpholino oligonucleotides were used at a concentration of 1 μM, and • the PNA oligonucleotides were administered at a concentration of 1 μM. The cells were treated with the oligonucleotides, adding FBS up to 4% 6 hours after administration of the same. After 24 hours the total RNA was extracted from each well and purified using the RNeasy Mini Kit (QIAGEN). Assays were performed on 8 cell lines obtained from 5 different human tumours which are correlated with MYCN expression, i.e.: • as a neuroblastoma model use was made of the cell lines Kelly, IMR-32 (where the MYCN gene is amplified and superexpressed) and SKNBE2c and LAN1 (where the MYCN gene is amplified and superexpressed and the p53 gene is mutated); • as a rabdomiosarcoma model use was made of the cell line RH30, where the MYCN gene is amplified and superexpressed; • as a Wilms' tumour model use was made of the cell line WiT49, where the MYCN gene is amplified and superexpressed; • as a retinoblastoma model use was made of the cell line Y79, where the MYCN gene is amplified and superexpressed; and • as a model of small cell lung cancer use was made of the cell line H69 where the MYCN gene is amplified and superexpressed. As a control, use was made of the same cell lines as listed above treated with sterile water instead of oligonucleotides. Each RNA sample was quantified (in duplicate) using a NanoDrop ND-1000 spectrophotometer (NanoDrop Technologies). The first strand of cDNA was produced using the cDNA Synthesis Kit for RT-PCR (Roche). For the cDNA synthesis reaction a total of 1 μg of RNA was used. For the real-time PCR, 10 ng of cDNA in a final volume of 20 μl was used with SYBR Green Master Mix 2× (Applied Biosystems) (3 identical experiments were conducted in triplicate). Two housekeeping genes were used as positive controls: GAPDH and beta-actin (ACTB). The conditions of the QT-PCR reaction were: 10 min at 95° C., 20 sec at 95° C., and 30 sec at 60° C., for 50 cycles. The PNAs having SEQ ID NO: 1-12 were also tested on different cell lines which overexpress MYCN (Kelly, SKNBE2c, RH30, […] 1 and H69). The results are shown in Table 6 and confirm the selectivity and specificity of the inhibition effect of the PNAs on the product of protein translation of the MYCN gene. Chimeric oligonucleotides comprising DNA monomers and LNA monomers and having the MYCN gene as their target were tested in vitro on alveolar rabdomyosarcoma cells (RH30). […]

[1] = test system: rabdomyosarcoma cells (RH30); test: Cellular proliferation assay (ATP-Lite), RH30 cells; format: cell-based, human; conditions: Table 6, PNA
Protocol: as §1, with “relationship. As regards all the other oligonucleotides, the concentrations at which they administered are listed in the paragraph:” for “relationship.”, “gene. Chimeric oligonucleotides comprising DNA monomers and LNA monomers and having the MYCN gene as their target were tested in vitro on alveolar rabdomyosarcoma cells (RH30). […] The antisense oligonucleotides designed and synthesized by the Applicant according to the parameters described in the present invention were analyzed in vitro on rabdomyosarcoma cells (RH30).” for “gene.”

| Substance | WERI-Rb1 % cell prol. (WERI-Rb1) [%] | WiT49 % cell prol. (WiT49) [%] | RH30 % mRNA (MYCN gene) [%] | RH30 % cell prol. [1] [%] |
| --- | --- | --- | --- | --- |
| SEQ ID NO: 3: PNA antigene oligonucleotide GATGCGGGGGGCTCCT directed against MYCN (PNA backbone, chemistry not fully specified) | 78 | 57 | 65 | 59 |
| SEQ ID NO: 12: PNA antigene oligonucleotide TGTCTGGACGCGCTGG directed against MYCN (all peptide nucleic acid (PNA)) | 84 | 73 | 32 | 77 |
| SEQ ID NO: 6: PNA antigene oligonucleotide TGGACGCGCTGGGTGG directed against MYCN (PNA backbone, chemistry not fully specified) | 80 | 65 | 56 | 64 |
| SEQ ID NO: 9: PNA antigene oligonucleotide CCCTGCAGTCGGCGGG directed against MYCN (all peptide nucleic acid (PNA)) | 79 | 68 | 50 | 71 |
| SEQ ID NO: 4: PNA antigene oligonucleotide GTCGGCGGGAGGTAAG directed against MYCN (PNA backbone, chemistry not fully specified) | 79 | 60 | 57 | 62 |
| SEQ ID NO: 11: PNA antigene oligonucleotide GGGAACTGTGTTGGAG directed against MYCN (PNA backbone, chemistry not fully specified) | 84 | 72 | 31 | 78 |
| SEQ ID NO: 8: PNA antigene oligonucleotide GTCTGGACGCGCTGGG directed against MYCN (all peptide nucleic acid (PNA)) | 78 | 62 | 58 | 60 |
| SEQ ID NO: 5: PNA antigene oligonucleotide GCTGGGTGGATGCGGG directed against MYCN (PNA backbone, chemistry not fully specified) | 80 | 63 | 56 | 64 |
| SEQ ID NO: 2: PNA antigene oligonucleotide GGGTGGATGCGGGGGG directed against MYCN (PNA backbone, chemistry not fully specified) | 79 | 54 | 74 | 56 |
| SEQ ID NO: 7: PNA antigene oligonucleotide CGCGCTGGGTGGATGC directed against MYCN (all peptide nucleic acid (PNA)) | 79 | 60 | 55 | 63 |
| SEQ ID NO: 1: PNA ATGCCGGGCATGATCT against MYCN; subject of patent EP 1618195, control sequence used for comparison (all peptide nucleic acid (PNA)) [reference compound] | 82 | 74 | 39 | 76 |
| SEQ ID NO: 10: PNA antigene oligonucleotide CGGCCGCGGGCCGCCA directed against MYCN (PNA backbone, chemistry not fully specified) | 85 | 70 | 29 | 80 |
